Data on nine compounds can be found in patent US11319317B2, “(Hetero)arylamide compound for inhibiting protein kinase activity” (Shenzhen TargetRx, Inc., priority 2017, dated 2022).

Where two headings read alike, the source gives them in different places. Where only a bound is given, the exact number is not on record here.

Broadly, the IC50 is the midpoint of a concentration-inhibition curve. As usually defined, the AUC(0-t) is exposure summed from dosing to a finite time, without extrapolation to infinity. As a reminder, the Cmax is the peak of the concentration-time curve.

Series [1] can be described thus: Pharmacokinetic experiment in rats. Format: in vivo, Sprague-Dawley rats. Particulars: rat; for F (oral availability): PO 20 mg/kg vs IV 2 mg/kg; for MRT inf: read-out: MRTINF pred. Also noted: Cl pred: unit not given here. Here is the method:
Rats were fed with a standard diet and water. Fasting began 16 hours before the test. The drugs were dissolved in PEG400 and dimethyl sulfoxide. Blood was collected from the eyelids at a time point of 0.083 hour, 0.25 hour, 0.5 hour, 1 hour, 2 hours, 4 hours, 6 hours, 8 hours, 12 hours, and 24 hours after administration. Rats were briefly anesthetized after inhalation of ether, and 300 μL of blood samples were collected from the eyelids to test tubes. There was 30 μL of 1% heparin salt solution in the test tube. […] After the blood sample was collected at the last time point, rats were anesthetized with ether and sacrificed. Immediately after the collection, blood samples were sufficiently mixed by gently inverting the tube at least 5 times, and were placed on ice. […] Plasma was stored at −80° C. prior to analysis. The concentration of the compounds disclosed herein in plasma was determined by LC-MS/MS. Pharmacokinetic parameters were calculated based on drug concentrations in plasma of each animal at different time points.

For series [2], the system named is CML. Particulars: combined with nilotinib; cited from earlier work.
Series [3] deals with Ba/F3 parent cells. Nature of the series: Cytotoxicity experiment (CellTiter-Glo), Ba/F3 parent cells. The class given is cell-based. The settings on record: Ba/F3 parental cells with 8 ng/ml IL-3, 3 days incubation. On the procedure: 1. […] The cell plates were placed in carbon dioxide culture and incubated overnight.
2. Preparation of test compounds: The test compounds were dissolved in DMSO and subjected to a 3.16-fold gradient dilution in triplicate, 9 concentrations were obtained, starting from the concentration of 10 μM.
3. Treatment of Cells with compounds: Compounds at various concentrations were transferred to cell plates. The cell plates were incubated in a carbon dioxide incubator for 3 days.
4. Detection: CellTiter-Glo4 reagent was added to the cell plates, which were incubated for 30 minutes at room temperature to stabilize the luminescence signal. Readings were performed using a PerkinElmer Envision multi-label analyzer.
Background: ATP-based viability assays read luminescence as a measure of living cells.

The test system of series [4] is Ebola virus. Particulars: in vitro; cited from earlier work.
The mark [5] stands for this setting: male, Sprague-Dawley, plasma, IV 2 mg/kg single dose.
Setting [6] is: male, Sprague-Dawley, plasma, PO 20 mg/kg single dose.

Take `O=C(Nc1ccc(OC(F)(F)Cl)cc1)c1cnc(N2CC[C@@H](O)C2)c(-c2ccn[nH]2)c1` [ABL-001, (R)—N-(4-(chlorodifluoromethoxy)phenyl)-6-(3-hydroxypyrrolidin-1-yl)-5-(1H-pyrazol-5-yl)nicotinamide, reference compound]: in series [1], the “F (oral availability)” value came to 19.86%. Further, in series [2], the “eradication of CML in a mouse model” value is on record as “effective in eradicating CML”.

For `O=C(Nc1ccc(OC(F)(F)Cl)cc1)c1cnc(N2CC[C@@H](O)C2)c(-c2ccsn2)c1` [Example 1, (R)-6-(3-hydroxypyrrolidin-1-yl)-5-(isothiazol-3-yl)-N-(4-(chlorodifluoromethoxy)phenyl) nicotinamide], the IC50 in series [3] (Mus musculus, BaF3, 72 h) is > 1000 nM.

As for `O=C(Nc1ccc(OC(F)(F)Cl)cc1)c1cnc(N2CC[C@@H](O)C2)c(-c2cnsc2)c1` [Example 2, (R)-6-(3-hydroxypyrrolidin-1-yl)-5-(isothiazol-4-yl)-N-(4-(chlorodifluoromethoxy)phenyl) nicotinamide], in series [3] (Mus musculus, BaF3, 72 h), the IC50 was > 1000 nM. Besides, in series [1] (setting [5]), the AUC(0-t) is 5450 ng·h/mL, the Cmax amounted to 5280 ng/mL and the MRT inf came out at 1.17 h. For the same compound, the Vd in series [1] (male, Sprague-Dawley, plasma, IV 2 mg/kg single dose, read-out: Vz pred) worked out at 0.57 L/kg. In series [1] (setting [6]), the AUC(0-t) was 21100 ng·h/mL, the concentration peaked (Cmax) at 2580 ng/mL and the MRT inf stood at 5.13 h. This compound also returned a Cl pred in series [1] (IV 2 mg/kg single dose) of 0.37. Further, in series [1] (PO 20 mg/kg single dose), the Cl pred is given as 0.96 and the Vz pred came out at 2.56 L/kg. The “F (oral availability)” value in series [1] worked out at 38.70%. Besides, in series [1] (oral administration), the “metabolic parameters (Cmax, AUClast, F %) compared with ABL-001” value is on record as “better metabolic parameters”.

Turning to `O=C(Nc1ccc(OC(F)(F)Cl)cc1)c1cnc(N2CC[C@@H](O)C2)c(-c2ccns2)c1` [Example 3, (R)-6-(3-hydroxypyrrolidin-1-yl)-5-(isothiazol-5-yl)-N-(4-(chlorodifluoromethoxy)phenyl) nicotinamide], the IC50 in series [3] (Mus musculus, BaF3, 72 h) was > 1000 nM.

Regarding `O=C(Nc1ccc(OC(F)(F)Cl)cc1)c1cnc(N2CC[C@@H](O)C2)c(-c2cnn[nH]2)c1` [Example 4, (R)-6-(3-hydroxypyrrolidin-1-yl)-5-(1H-1,2,3-triazol-5-yl)-N-(4-(chlorodifluoromethoxy)phenyl)nicotinamide], in series [3] (Mus musculus, BaF3, 72 h), the IC50 was > 1000 nM.

As for `O=C(Nc1ccc(OC(F)(F)Cl)cc1)c1cnc(N2CC[C@@H](O)C2)c(-c2nnn[nH]2)c1` [Example 5, (R)-6-(3-hydroxypyrrolidin-1-yl)-5-(1H-1,2,34-tetrazol-5-yl)-N-(4-(chlorodifluoromethoxy)phenyl)nicotinamide], the IC50 in series [3] was > 1000 nM.

Turning to `O=C(Nc1ccc(OC(F)(F)Cl)cc1)c1cnc(N2CC[C@@H](O)C2)c(-c2ncns2)c1` [Example 6], the IC50 in series [3] (Mus musculus, BaF3, 72 h) is > 1000 nM.

On to `Cc1ccc(NC(=O)c2ccc(CN3CCN(C)CC3)cc2)cc1Nc1nccc(-c2cccnc2)n1` [Imatinib], for which the “release of Ebola viral particles from infected cells” value in series [4] was “stop the release of Ebola viral particles”.

Regarding `Cc1cn(-c2cc(NC(=O)c3ccc(C)c(Nc4nccc(-c5cccnc5)n4)c3)cc(C(F)(F)F)c2)cn1` [nilotinib], the “release of Ebola viral particles from infected cells” value in series [4] is “stop the release of Ebola viral particles”.
